Source: patent US5773646A, “Meta-substituted phenylene derivatives” (G. D. Searle & Co., priority 1997, dated 1998)
Structures can show the parent of a compound that is named as a salt.

What was measured:
[1] = biological target: T1, Human vitronectin receptor (αv β3) (Homo sapiens, UniProt P05106+P06756); assay: Vitronectin adhesion assay (solid phase receptor assay, biotinylated vitronectin competition); assay type: binding; conditions: inhibition of 50% of the maximum binding of biotinylated vitronectin; 1 nM labeled ligand, 2 hours, room temperature, highest concentration of test compound 1.0×10^-4 M; read-out: AvB3 IC50
T1 construct: Human vitronectin receptor(αv β3) was purified from human placenta; from tissue; host or cells: human placenta
Method: VITRONECTIN ADHESION ASSAY Human vitronectin receptor(αv β3) was purified from human placenta as previously described [Pytela et al., Methods in Enzymology, 144:475-489 (1987)). Human vitronectin was purified from fresh frozen plasma as previously described [Yatohgo et al., Cell Structure and Function, 13:281-292 (1988)]. Biotinylated human vitronectin was prepared by coupling NHS-biotin from Pierce Chemical Company (Rockford, Ill.) to purified vitronectin as previously described [Charo et al., J. Biol. Chem., 266(3):1415-1421 (1991)]. Assay buffer, OPD substrate tablets, and RIA grade BSA were obtained from Sigma (St. Louis, Mo.). Anti-biotin antibody was obtained from Calbiochem (La Jolla, Calif.). Linbro microtiter plates were obtained from Flow Labs (McLean, Va.). ADP reagent was obtained from Sigma (St. Louis, Mo.). Solid Phase Receptor Assays This assay was essentially the same as previously reported [Niiya et al., Blood, 70:475-483 (1987)]. The purified human vitronectin receptor (αv β3) was diluted from stock solutions to 1.0 μg/mL in Tris-buffered saline containing 1.0 mM Ca^++, Mg^++, and Mn^++, pH 7.4 (TBS^+++). The diluted receptor was immediately transferred to Linbro microtiter plates at 100 μL/well (100 ng receptor/well). The plates were sealed and incubated overnight at 4° C. to allow the receptor to bind to the wells. All remaining steps were at room temperature. The assay plates were emptied and 200 μL of 1% RIA grade BSA in TBS^+++ (TBS^+++ /BSA) were added to block exposed plastic surfaces. Following a 2 hour incubation, the assay plates were washed with TBS^+++ using a 96 well plate washer. Logarithmic serial dilution of the test compound and controls were made starting at a stock concentration of 2 mM and using 2 nM biotinylated vitronectin in TBS^+++ /BSA as the diluent. This premixing of labeled ligand with test (or control) ligand, and subsequent transfer of 50 μL aliquots to the assay plate was carried out with a CETUS Propette robot; the final concentration of the labeled ligand was 1 nM and the highest concentration of test compound was 1.0×10^-4 M. The competition occurred for two hours after which all wells were washed with a plate washer as before. Affinity purified horseradish peroxidase labeled goat antibiotin antibody was diluted 1:3000 in TBS^+++ /BSA and 125 μL were added to each well. After 30 minutes, the plates were washed and incubated with OPD/H2 O2 substrate in 100 mM/L Citrate buffer, pH 5.0. The plate was read with a microtiter plate reader at a wavelength of 450 nm and when the maximum-binding control wells reached an absorbance of about 1.0, the final A450 were recorded for analysis. The data were analyzed using a macro written for use with the EXCEL™ spreadsheet program. The mean, standard deviation, and %CV were determined for duplicate concentrations. The mean A450 values were normalized to the mean of four maximum-binding controls (no competitor added)(B-MAX). The normalized values were subjected to a four parameter curve fit algorithm [Rodbard et al., Int.

[2] = biological target: T2, Human fibrinogen receptor (αIIb β3) (Homo sapiens, UniProt P05106+P08514); assay: Purified IIb/IIIa receptor assay (solid phase receptor assay, biotinylated vitronectin competition); conditions: inhibition of 50% of the maximum binding of biotinylated vitronectin; 1 nM labeled ligand, 2 hours, room temperature, highest concentration of test compound 1.0×10^-4 M
T2 construct: Human fibrinogen receptor (αIIb β3) was purified from outdated platelets; from tissue; host or cells: outdated human platelets
From the text: PURIFIED IIb/IIIa RECEPTOR ASSAY Human fibrinogen receptor (αIIb β3) was purified from outdated platelets. (Pytela, R., Pierschbacher, […]., Suzuki, S., and […] acid adhesion receptors", Methods in Enzymology 144(1987):475-489.) Human vitronectin was purified from fresh frozen plasma as described in Yatohgo, T., Izumi, M., Kashiwagi, H., and Hayashi, M., "Novel purification of vitronectin from human plasma by heparin affinity chromatography," Cell Structure and Function 13(1988):281-292. Biotinylated human vitronectin was prepared by coupling NHS-biotin from Pierce Chemical Company (Rockford, Ill.) to purified vitronectin as previously described. (Charo, […]., Phillips, D. R., Hsu, M. A., Scarborough, R. M., "Inhibition of fibrinogen binding to GP IIb/IIIa by a GP IIIa peptide", J. Biol. Chem. 266(3)(1991):1415-1421.) Assay buffer, OPD substrate tablets, and RIA grade BSA were obtained from Sigma (St. Louis, Mo.). Anti-biotin antibody was obtained from Calbiochem (La Jolla, Calif.). Linbro microtiter plates were obtained from Flow Labs (McLean, Va.). ADP reagent was obtained from Sigma (St. Louis, Mo.). Solid Phase Receptor Assays This assay is essentially the same reported in […]., Bader, R., Byers-Ward, […]., Plow, E. F. and Ruggeri, Z. M., "Increased surface expression of the membrane glycoprotein IIb/IIIa complex induced by platelet activation: Relationships to the binding of fibrinogen and platelet aggregation", Blood 70(1987):475-483. The purified human fibrinogen receptor (αIIb β3) was diluted from stock solutions to 1.0 μg/mL in Tris-buffered saline containing 1.0 mM Ca^++, Mg^++, and Mn^++, pH 7.4 (TBS^+++). The diluted receptor was immediately transferred to Linbro microtiter plates at 100 μL/well (100 ng receptor/well). The plates were sealed and incubated overnight at 4° C. to allow the receptor to bind to the wells. All remaining steps were at room temperature. The assay plates were emptied and 200 μL of 1% RIA grade BSA in TBS^+++ (TBS^+++ /BSA) were added to block exposed plastic surfaces. Following a 2 hour incubation, the assay plates were washed with TBS^+++ using a 96 well plate washer. Logarithmic serial dilution of the test compound and controls were made starting at a stock concentration of 2 mM and using 2 nM biotinylated vitronectin in TBS^+++ /BSA as the diluent. This premixing of labeled ligand with test (or control) ligand, and subsequent transfer of 50 μL aliquots to the assay plate was carried out with a CETUS Propette robot; the final concentration of the labeled ligand was 1 nM and the highest concentration of test compound was 1.0×10^-4 M. The competition occurred for two hours after which all wells were washed with a plate washer as before. Affinity purified horseradish peroxidase labeled goat antibiotin antibody was diluted 1:3000 in TBS^+++ /BSA and 125 μL were added to each well. After 30 minutes, the plates were washed and incubated with […]/H2 O2 substrate in 100 mM/L citrate buffer, pH 5.0. The plate was read with a microtiter plate reader at a wavelength of 450 nm and when the maximum-binding control wells reached an absorbance of about 1.0, the final A450 were recorded for analysis. The data were analyzed using a macro written for use with the EXCELTM spreadsheet program. The mean, standard deviation, and %CV were determined for duplicate concentrations. The mean A450 values were normalized to the mean of four maximum-binding controls (no competitor added)(B-MAX). The normalized values were subjected to a four parameter curve fit algorithm, [Robard et al., Int.

| SMILES | IC50 [1] | IC50 [2] |
| --- | --- | --- |
| NC(=O)N=C(N)Nc1cccc(S(=O)(=O)Nc2cccc(C(CC(=O)O)c3cc(F)cc(F)c3)c2)c1 (stereo not drawn) [Example 91, β-[3-[[[3-[[amino[(aminocarbonyl)imino]methyl]amino]phenyl]sulfonyl]amino]phenyl]-3,5-difluorobenzenepropanoic Acid, Trifluoroacetate Salt] | 0.00839 µM | 1.07 µM |
| O=C(O)COc1cccc(C(=O)/C=C/c2cccc(NC3=NCCN3)c2)c1 [Example 72, 2-[3-[3-[3-[(4,5-dihydro-1H-imidazol-2-yl)amino]phenyl]-1-oxo-2-propenyl]phenoxy]acetic acid, trifluoroacetate salt hydrate] | 0.168 µM | 8.1 µM |
| CC(CC(=O)O)c1cccc(CNC(=O)c2cccc(NC(N)=NC#N)c2)c1 (racemic) [Example 64, (±) 3[[[[3-[[amino(cyanoimino)methyl]amino]phenyl]carbonyl]amino]methyl]-β-methylbenzenepropanoic acid] | 0.199 µM | 26.4 µM |
| NC(=O)Nc1cccc(S(=O)(=O)Nc2cccc(C(CC(=O)O)c3ccccc3)c2)c1 (stereo not drawn) [Example 8, 3-[[[3-[(aminocarbonyl)amino]phenyl]sulfonyl]amino]-β-phenylbenzenepropanoic acid] | 0.641 µM | 11.6 µM |
| CCOC(=O)CCc1cccc(CNC(=O)c2cccc(NC(=O)NCc3ccccc3)c2)c1 [Example 30, ethyl 3-[[[[3-[[[(phenylmethyl)amino]carbonyl]amino]phenyl]carbonyl]amino]methyl]benzenepropanoate] | > 100 µM | > 100 µM |
| CCC(CC(=O)O)c1cccc(NS(=O)(=O)c2cccc(NC(=N)N)c2)c1 (stereo not drawn) [Example 94, 3-[[[3-[(aminoiminomethyl)amino]phenyl]sulfonyl]amino]-β-ethylbenzenepropanoic Acid, Trifluoroacetate Salt] | 0.0121 µM | 2.05 µM |
| N=C(N)Nc1cccc(S(=O)(=O)Nc2cccc(C(CC(=O)O)c3cc(Cl)cc(Cl)c3)c2)c1 (stereo not drawn) [Example 77, β-[3-[[[3-[(aminoiminomethyl)amino]phenyl]sulfonyl]amino]phenyl]-3,5-dichlorobenzene Propanoic Acid, Trifluoroacetate Salt] | 0.0325 µM | 5.82 µM |
| CCOC(=O)CCc1cccc(CNC(=O)c2cccc(NC(N)=O)c2)c1 [Example 28, ethyl 3-[[[[3-[(aminocarbonyl)amino]phenyl]carbonyl]amino]methyl]benzenepropanoate] | > 100 µM | > 100 µM |
| COC(=O)Cc1cccc(CNC(=O)c2cccc(NC(=N)N)c2)c1 [Example 47, methyl 3-[[[[3-[(aminoiminomethyl)amino]phenyl]carbonyl]amino]methyl]benzeneacetate, trifluoroacetate salt] | 36.5 µM | > 100 µM |
| NC(=S)Nc1cccc(S(=O)(=O)Nc2cccc(C(CC(=O)O)c3ccccc3)c2)c1 (stereo not drawn) [Example 10, 3-[[[3-[(aminothioxomethyl)amino]phenyl]sulfonyl]amino]-β-phenylbenzenepropanoic acid] | 0.144 µM | 5.54 µM |
| N=C(N)Nc1cccc(S(=O)(=O)Nc2cccc(C(CC(=O)O)c3cc(F)c(F)c(F)c3)c2)c1 (stereo not drawn) [Example 80, β-[3-[[[3-[(aminoiminomethyl)amino]phenyl]sulfonyl]amino]phenyl]-3,4,5-trifluorobenzenepropanoic Acid, Trifluoroacetate Salt] | 0.013 µM | 1.37 µM |
| N=C(N)Nc1cccc(S(=O)(=O)Nc2cccc(C(CC(=O)O)c3ccccc3O)c2)c1 (stereo not drawn) [Example 102, Sodium β-[3-[[[3[(aminoiminomethyl)amino]phenyl]-sulfonyl]amino]phenyl]-2-hydroxybenzenepropanoate, Trifluoroacetate Salt] | 0.0232 µM | 0.706 µM |
| CNC(=NC#N)Nc1cccc(C(=O)NCc2cccc(C(CC(=O)O)c3ccccc3)c2)c1 (stereo not drawn) [Example 55, 3-[[[[3-[[(cyanoimino)(methylamino)methyl]amino]phenyl]carbonyl]amino]methyl]-β-phenylbenzenepropanoic acid] | 0.108 µM | 13.4 µM |
| O=C(O)CC(c1ccccc1)c1cccc(OCc2cccc(NC3=NCCN3)c2)c1 (stereo not drawn) [Example 99, 3-[[3-[(4,5-dihydro-1H-imidazol-2-yl)amino]phenyl]methoxy]-β-phenylbenzenepropanoic Acid, Trifluoroacetate Salt] | 0.0486 µM | 1 µM |
| N=C(N)Nc1cccc(C#Cc2cccc(C(CC(=O)O)c3ccccc3)c2)c1 (stereo not drawn) [Example 74, 3-[2-[3-[(aminoiminomethyl)amino]phenyl]ethynyl]-β-phenylbenzenepropanoic acid, trifluoroacetate salt] | 1.48 µM | 20.1 µM |
| CCOC(=O)CC(c1ccccc1)c1cccc(CNC(=O)c2cccc(NC(=N)N)c2)c1 (stereo not drawn) [Example 37, ethyl 3-[[[[3-[(aminoiminomethyl)amino]phenyl]carbonyl]amino]methyl]-β-phenylbenzenepropanoate, trifluoroacetate salt] | 32.2 µM | 79 µM |
